# Laboratory results as given in the supplement of paper PMC10307832.
# Columns and labels:
# Assay in all cases: relative viability (nuclei count vs DMSO), 5 days (fraction); higher = more cells survive
# BI-D1870 + Luminespib = compound: CC(C)CCN1c2nc(Nc3cc(F)c(O)c(F)c3)ncc2N(C)C(=O)C1C [BI-D1870] + CCNC(=O)c1noc(-c2cc(C(C)C)c(O)cc2O)c1-c1ccc(CN2CCOCC2)cc1 [Luminespib] (partner 0.01 µM)
# In short: (§1)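 Lung cancer cell lines were pin-tool dosed in 1536-well plates on the day after seeding, with either a lone drug or a fixed anchor-drug dose plus five library-drug doses (not always all listed) in √10 steps. Nuclei were counted on 4× images after 5 days. Relative viability is the ratio of treated-well to vehicle-well nuclei counts, with each value a median of duplicate plates.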
# BI-D1870 + Olaparib = compound: CC(C)CCN1c2nc(Nc3cc(F)c(O)c(F)c3)ncc2N(C)C(=O)C1C [BI-D1870] + O=C(c1cc(Cc2n[nH]c(=O)c3ccccc23)ccc1F)N1CCN(C(=O)C2CC2)CC1 [Olaparib] (partner 8 µM)
# In short: as §1
# Zebularine + Pictilisib = compound: O=c1ncccn1[C@@H]1O[C@H](CO)[C@@H](O)[C@H]1O [Zebularine] + CS(=O)(=O)N1CCN(Cc2cc3nc(-c4cccc5[nH]ncc45)nc(N4CCOCC4)c3s2)CC1 [Pictilisib] (partner 1 µM)
# In short: as §1
# Zebularine + AZD7762 = compound: O=c1ncccn1[C@@H]1O[C@H](CO)[C@@H](O)[C@H]1O [Zebularine] + NC(=O)Nc1cc(-c2cccc(F)c2)sc1C(=O)N[C@H]1CCCNC1 [AZD7762] (partner 0.2 µM)
# In short: as §1
Cell Line,relative viability (BI-D1870 + Luminespib; first compound 0.04 µM),relative viability (BI-D1870 + Luminespib; first compound 0.1265 µM),relative viability (BI-D1870 + Luminespib; first compound 0.4 µM),relative viability (BI-D1870 + Luminespib; first compound 1.265 µM),relative viability (BI-D1870 + Luminespib; first compound 4 µM),relative viability (BI-D1870 + Olaparib; first compound 0.04 µM),relative viability (BI-D1870 + Olaparib; first compound 0.1265 µM),relative viability (BI-D1870 + Olaparib; first compound 0.4 µM),relative viability (BI-D1870 + Olaparib; first compound 1.265 µM),relative viability (BI-D1870 + Olaparib; first compound 4 µM),relative viability (Zebularine + Pictilisib; first compound 1 µM),relative viability (Zebularine + Pictilisib; first compound 3.162 µM),relative viability (Zebularine + Pictilisib; first compound 10 µM),relative viability (Zebularine + Pictilisib; first compound 31.62 µM),relative viability (Zebularine + Pictilisib; first compound 100 µM),relative viability (Zebularine + AZD7762; first compound 1 µM),relative viability (Zebularine + AZD7762; first compound 3.162 µM),relative viability (Zebularine + AZD7762; first compound 10 µM),relative viability (Zebularine + AZD7762; first compound 31.62 µM),relative viability (Zebularine + AZD7762; first compound 100 µM)
NCI-H1975,0.27,0.101,0.308,0.257,0.208,0.869,0.708,0.784,0.731,0.499,0.305,0.313,0.291,0.253,0.175,0.747,0.748,0.549,0.499,0.345
CAL-12T,0.332,0.211,0.313,0.419,0.491,0.692,0.701,0.672,0.482,0.372,0.509,0.398,,0.482,0.364,0.659,0.674,0.501,0.689,0.602
NCI-H1623,0.597,0.521,0.625,0.462,0.499,,,,,,,,,,,,,,,
HCC-44,1.46,1,0.986,1.26,0.695,1,0.954,0.98,1.05,0.976,0.535,0.648,0.375,0.625,0.323,1.11,1.03,1.15,1.14,1.01
EKVX,0.836,0.819,0.879,0.993,0.792,0.916,0.789,0.805,0.969,0.721,0.419,0.456,,0.487,0.401,0.846,0.816,,0.593,0.772
NCI-H1651,0.902,0.743,0.764,1.03,0.843,0.2,0.157,0.175,0.187,0.178,0.71,0.732,,0.571,0.418,0.506,0.486,0.445,0.466,0.294
NCI-H1944,0.841,0.691,0.669,0.879,0.763,0.455,0.412,0.368,0.398,0.367,0.375,0.363,0.325,0.41,0.347,0.598,0.537,0.451,0.525,0.258
NCI-H1703,,,,,,,0.439,0.328,0.487,0.315,0.267,,,0.265,0.239,0.144,0.173,0.118,0.142,0.103
Calu-6,,,,,,0.658,0.534,0.479,0.359,0.254,0.995,0.898,0.467,0.859,0.218,,,,,
EBC-1,,,,,,0.738,0.581,0.574,0.337,0.183,0.338,0.348,0.311,0.387,0.303,,,,,
SW 1573,0.219,0.172,0.297,0.191,0.143,0.602,0.415,0.432,0.419,0.191,0.576,0.505,,0.471,0.377,,,,,
A-427,1.06,0.764,0.77,1.11,0.879,0.71,0.647,0.659,0.705,0.551,0.835,0.783,0.686,0.433,0.191,0.753,0.628,0.487,0.501,0.287
NCI-H2347,0.738,0.376,0.367,0.48,0.402,0.547,0.589,0.552,0.633,0.487,0.8,0.529,0.439,0.558,0.462,0.858,0.788,0.609,0.462,0.305
NCI-H1355,0.802,0.675,0.649,0.737,0.573,0.898,0.698,0.713,0.74,0.57,0.45,0.272,0.371,0.426,0.254,0.722,0.8,0.543,0.588,0.338
NCI-H358,0.441,0.158,0.256,0.313,0.319,0.685,0.548,0.592,0.485,0.35,0.344,0.28,0.395,0.325,0.212,0.591,0.386,0.484,0.451,0.333
PC-3 [JPC-3],0.783,0.645,0.717,0.825,0.677,1.25,1.08,1.08,0.966,0.831,0.745,0.612,0.538,0.738,0.478,0.933,0.944,0.618,0.826,0.611
NCI-H2228,0.142,0.131,0.146,0.157,0.127,0.678,0.429,0.511,0.717,0.314,0.563,0.416,0.228,0.329,0.251,,,,,
HOP-62,0.989,0.929,0.88,0.95,0.866,0.545,0.364,0.388,0.525,0.383,0.579,0.608,0.284,0.287,0.175,0.649,0.658,0.303,0.307,0.247
HARA,0.939,0.626,0.671,0.486,0.666,0.795,0.826,0.86,0.868,0.972,0.432,0.392,,0.606,0.35,0.417,0.31,0.303,0.371,0.336
NCI-H838,0.309,0.343,0.236,0.295,0.319,0.792,0.719,0.74,0.855,0.663,0.463,0.457,0.422,0.51,0.303,0.934,0.977,0.764,0.861,0.738
NCI-H1755,0.577,0.542,0.413,0.771,0.316,0.855,0.842,0.893,0.896,0.82,0.554,0.433,0.326,0.484,0.36,0.411,0.505,0.384,0.611,0.36

Cell Line,relative viability (BI-D1870 + Luminespib; first compound 0.04 µM),relative viability (BI-D1870 + Luminespib; first compound 0.1265 µM),relative viability (BI-D1870 + Luminespib; first compound 0.4 µM),relative viability (BI-D1870 + Luminespib; first compound 1.265 µM),relative viability (BI-D1870 + Luminespib; first compound 4 µM),relative viability (BI-D1870 + Olaparib; first compound 0.04 µM),relative viability (BI-D1870 + Olaparib; first compound 0.1265 µM),relative viability (BI-D1870 + Olaparib; first compound 0.4 µM),relative viability (BI-D1870 + Olaparib; first compound 1.265 µM),relative viability (BI-D1870 + Olaparib; first compound 4 µM),relative viability (Zebularine + Pictilisib; first compound 1 µM),relative viability (Zebularine + Pictilisib; first compound 3.162 µM),relative viability (Zebularine + Pictilisib; first compound 10 µM),relative viability (Zebularine + Pictilisib; first compound 31.62 µM),relative viability (Zebularine + Pictilisib; first compound 100 µM),relative viability (Zebularine + AZD7762; first compound 1 µM),relative viability (Zebularine + AZD7762; first compound 3.162 µM),relative viability (Zebularine + AZD7762; first compound 10 µM),relative viability (Zebularine + AZD7762; first compound 31.62 µM),relative viability (Zebularine + AZD7762; first compound 100 µM)
HCC-78,,,,,,0.662,0.932,0.682,0.971,0.68,0.223,0.192,0.211,0.254,0.197,0.716,0.743,,0.648,0.468
IA-LM,,,,,,0.812,0.739,0.913,0.851,0.506,0.394,0.325,,0.37,0.292,,,,,
NCI-H322M,0.956,0.84,0.884,0.88,0.774,0.736,0.75,0.713,0.735,0.624,0.496,0.504,0.439,0.538,0.465,0.555,0.606,0.572,0.522,0.528
COR-L23,0.812,0.524,0.587,0.875,0.504,0.315,0.325,0.327,0.35,0.245,0.926,0.776,0.291,0.287,0.24,,,,,
NCI-H2023,1.03,0.48,0.685,0.795,0.385,0.504,0.444,0.4,0.44,0.252,0.262,0.272,0.215,0.272,0.201,,,,,
COR-L 105,0.824,0.828,0.631,0.854,0.666,0.79,0.533,0.713,0.687,0.678,0.388,0.381,0.373,0.464,0.41,,,,,
NCI-H520,0.207,0.209,0.243,0.22,0.194,0.336,0.355,0.295,0.246,0.162,0.362,0.308,0.204,0.268,0.152,,,,,
SK-LU-1,0.178,0.17,0.207,0.224,0.179,0.497,0.377,0.41,0.427,0.35,0.63,0.495,0.393,0.501,0.31,,,,,
NCI-H2342,0.706,0.718,0.711,0.758,0.907,0.524,0.459,0.471,0.415,0.502,,,,,,0.512,0.415,0.399,0.505,0.429
NCI-H1299,,,,,,1.04,1,0.996,0.892,0.545,0.75,0.761,0.543,0.739,0.264,,,,,
NCI-H1650,0.197,0.212,0.193,0.212,0.2,0.722,0.767,0.788,0.943,0.817,0.72,0.447,,0.839,0.488,,,,,
NCI-H2009,1.1,1.01,0.93,0.999,0.59,0.831,0.826,0.602,0.619,0.583,0.838,0.782,0.614,0.68,0.37,,,,,
SW 900,0.193,0.192,0.18,0.175,0.158,0.826,0.765,0.711,0.733,0.964,,,,,,0.65,0.57,,0.818,0.832
SK-MES-1,0.904,0.649,0.66,0.535,0.251,0.77,0.561,0.731,0.363,0.19,0.375,0.399,0.294,0.346,0.203,,,,,
NCI-H1648,,,,,,0.919,0.691,,0.633,0.846,,,,,,0.587,0.71,0.543,0.615,0.6
NCI-H522,0.929,1.05,0.989,1.24,1.29,0.7,0.627,0.67,0.667,0.62,,,,,,0.76,0.821,0.767,0.858,0.841
HCC-366,,,,,,0.503,0.348,0.295,0.42,0.229,0.16,0.133,0.119,0.177,0.124,0.336,0.264,0.219,0.463,0.162
A549,,,,,,0.382,0.382,0.268,0.379,0.399,0.626,0.482,,0.619,0.209,,,,,
NCI-H661,0.961,0.935,0.988,1.01,0.877,0.781,0.746,0.738,0.737,0.58,0.413,0.427,0.328,0.354,0.395,,,,,
NCI-H1563,0.512,0.481,0.502,0.521,0.526,,,,,,0.645,0.607,0.636,0.674,0.706,,,,,
